Patent publication US12533357B2, “Treatment for acute myeloid leukemia or myelodysplastic syndrome” (UNIVERSITY HEALTH NETWORK, priority 2019, dated 2026)

Experiments:
DAUDI = experiment: In vitro cytotoxicity (IC50) assay, alamarBlue; assay type: cell-based; conditions: NHL B-Cell Burkitt
Procedure: (§1) Cells were seeded in triplicate at 10,000 per 80 uL, into 96-well plates 24 hours before compound overlay and cultured at 37° C. and 5% CO2. Compound (I) was prepared as a 10 mM stock in 100% DMSO and diluted with RPMI 1640 cell growth medium containing 10% FBS such that the final concentrations ranged from 50 pM to 15 uM. Aliquots (20 uL) from each concentration were overlaid to 80 uL of pre-seeded cells to achieve final concentrations of 10 pM to 3 uM. After 3 days, cell viability in each well was assessed by alamarBlue assay according to the manufacturer's instruction (ThermoFisher Scientific). Absorbance was read at 570 nm using a SpectraPlus microplate reader (Molecular Devices Corporation). alamarBlue absorbance values were adjusted by subtracting the average of the baseline readings from untreated cells assessed one day after cell seeding. The percentage (%) of relative inhibition of cell viability was calculated by comparing to DMSO-treated cells. IC50s were calculated using GraphPad PRISM software (GraphPad Software Inc.).

HL-60 = experiment: In vitro cytotoxicity (IC50) assay, alamarBlue; assay type: cell-based; conditions: HL-60, AML M2
Procedure: as §1

JURKAT = experiment: In vitro cytotoxicity (IC50) assay, alamarBlue; assay type: cell-based; conditions: T-ALL
Procedure: as §1

K-562 = experiment: In vitro cytotoxicity (IC50) assay, alamarBlue; assay type: cell-based; conditions: K-562, CML
Procedure: as §1

NALM-16 = experiment: In vitro cytotoxicity (IC50) assay, alamarBlue; assay type: cell-based; conditions: NALM-16, B-ALL
Procedure: as §1

NALM-6 = experiment: In vitro cytotoxicity (IC50) assay, alamarBlue; assay type: cell-based; conditions: NALM-6, B-ALL
Procedure: as §1

NB4 = experiment: In vitro cytotoxicity (IC50) assay, alamarBlue; assay type: cell-based; conditions: NB4, AML M3
Procedure: as §1

OCI-AML2 = experiment: In vitro cytotoxicity (IC50) assay, alamarBlue; assay type: cell-based; conditions: OCI-AML2, AML M4
Procedure: as §1

OCI-AML3 = experiment: In vitro cytotoxicity (IC50) assay, alamarBlue; assay type: cell-based; conditions: OCI-AML3, AML M4
Procedure: as §1

OCI-AML4 = experiment: In vitro cytotoxicity (IC50) assay, alamarBlue; assay type: cell-based; conditions: OCI-AML4, AML M4
Procedure: as §1

OCI-LY10 = experiment: In vitro cytotoxicity (IC50) assay, alamarBlue; assay type: cell-based; conditions: OCI-LY10, NHL ABC-DLBCL
Procedure: as §1

OCI-LY18 = experiment: In vitro cytotoxicity (IC50) assay, alamarBlue; assay type: cell-based; conditions: OCI-LY18, NHL GCB-DLBCL
Procedure: as §1

RAJI = experiment: In vitro cytotoxicity (IC50) assay, alamarBlue; assay type: cell-based; conditions: NHL B-Cell Burkitt
Procedure: as §1

REH = experiment: In vitro cytotoxicity (IC50) assay, alamarBlue; assay type: cell-based; conditions: B-ALL
Procedure: as §1

RS4;11 = experiment: In vitro cytotoxicity (IC50) assay, alamarBlue; assay type: cell-based; conditions: RS4;11, B-ALL
Procedure: as §1

SU-DHL-8 = experiment: In vitro cytotoxicity (IC50) assay, alamarBlue; assay type: cell-based; conditions: SU-DHL-8, NHL DLBCL
Procedure: as §1

THP-1 = experiment: In vitro cytotoxicity (IC50) assay, alamarBlue; assay type: cell-based; conditions: THP-1, AML M5
Procedure: as §1

[1] = system: MOLT-4 acute lymphoblastic leukemia xenograft; experiment: MOLT-4 xenograft tumor growth in SCID mice; assay type: in vivo; conditions: for complete regressions: 21 days of dosing; for tumors with regression observed / average tumor regression: day 13, fumarate
Procedure: The human acute lymphoblastic leukemia cell line MOLT-4 was acquired from American Type Culture Collection (Manassas, VA, USA) and grown in RPMI medium containing 100 units/mL penicillin G sodium, 100 μg/mL streptomycin sulfate. The media was supplemented with 10% heat-inactivated fetal bovine serum, 2 mM L-glutamine, and 0.11% sodium pyruvate. The tumor cells were maintained in a humidified environment of 5% CO2 and 95% air at 37° C. Cells were verified to be free of mouse pathogens by IMPACT IV PCR analysis (IDEXX RADIL, Colombia, MO, USA) before injection.
Female SCID mice were purchased from the Ontario Cancer Institute and received and acclimated at the MaRS-TMDT Animal Resources Centre for 2 weeks prior to the start of the experiment. The mice were fed ad libitum autoclaved water and Rodent Lab Diet (Harlan Teklad LM-485) consisting of 19% crude protein, 5% crude fat, and 5% crude fiber. Mice were housed in microisolator cages and maintained in an environment with a 12-hour light cycle at 20-22° C. and 40-60% humidity. On the day of implantation, MOLT-4 cells were harvested and resuspended with serum free DMEM to a concentration of 1×10^8/mL and each mouse was injected subcutaneously with a volume of 0.1 mL containing 1×10^7 MOLT-4 cells in the right rear flank.
Animals were dosed Compound (I) via oral gavage in a volume of 10 mL/kg. The animals were dosed with a 2.25 mm×50 mm curved gavage needle affixed to a 1 mL syringe. Vincristine was dosed by IP injection once per week.
Toxicity was evaluated by body weight measurements and clinical observations. The mice were observed daily for overt signs of any adverse, treatment related side effects, and clinical signs of toxicity. Acceptable toxicity was set at a group mean body weight loss of less than 20% during the study and not more than one treatment related death in a group. Animals were monitored for body weights and tumor growth where tumor volumes were calculated using the formula: tumor volume=width^2×length/2.
The study evaluated Compound (I) fumarate administered by oral gavage for 21 days, either daily at 7.5 mg/kg or 2 days on/5 days off at 13.5 mg/kg, in comparison to the standard-of-care agent vincristine, dosed in 4 weekly intraperitoneal injections of 0.5 mg/kg, in the MOLT-4 […] xenograft model in SCID (severe combined immunodeficiency) mice. Xenografts were established by subcutaneously injecting 1×10^7 tumor cells into the right flank of female SCID mice. Treatment was initiated 9 days following implantation when tumor volumes reached a mean volume of approximately 250 mm^3.

[2] = Homo sapiens, 72 h, 3 days, read-out: Compound (I) IC50
[3] = Day 25, 2-on/5-off arm 13.5 mg/kg

Structure (SMILES): COc1ccc2c(c1)[C@]1(C[C@H]1c1ccc3c(/C=C/c4ccc(CN5C[C@@H](C)O[C@@H](C)C5)cc4)n[nH]c3c1)C(=O)N2 [Compound (I), (1R,2S)-2-(3-((E)-4-(((2S,6R)-2,6-dimethylmorpholino)methyl)styryl)-1H-indazol-6-yl)-5′-methoxyspiro[cyclopropane-1,3′-indolin]-2′-one]
- IC50 (DAUDI; [2]): 0.2 nM
- Response to Compound (I) (DAUDI): death
- Response to Compound (I) (HL-60): death
- IC50 (HL-60; [2]): 8.4 nM
- IC50 (JURKAT; [2]): 0.6 nM
- Response to Compound (I) (JURKAT): death
- Response to Compound (I) (K-562): mitotic defects +
- Response to Compound (I) (NALM-16): mitotic defects +
- Response to Compound (I) (NALM-6): mitotic defects +
- Response to Compound (I) (NB4): mitotic defects +
- Response to Compound (I) (OCI-AML2): mitotic defects +
- Response to Compound (I) (OCI-AML3): mitotic defects +
- Response to Compound (I) (OCI-AML4): mitotic defects +
- IC50 (OCI-LY10; [2]): 6.8 nM
- Response to Compound (I) (OCI-LY10): death
- Response to Compound (I) (OCI-LY18): mitotic defects +
- IC50 (RAJI; [2]): 0.1 nM
- Response to Compound (I) (RAJI): death
- Response to Compound (I) (REH): death
- IC50 (REH; [2]): 5.1 nM
- Response to Compound (I) (RS4;11): mitotic defects +
- IC50 (SU-DHL-8; [2]): 12 nM
- Response to Compound (I) (SU-DHL-8): death
- IC50 (THP-1; [2]): 1.4 nM
- Response to Compound (I) (THP-1): death
- average regression [1, 3]: 96%
- complete regressions [1, 3]: 6 of 8
- complete regressions ([1]; Day 25, daily dosing arm 7.5 mg/kg): 8 of 8
- overall efficacy in MOLT-4 xenograft model ([1]; SCID mice): very efficacious and potentially curative
- tumors with regression observed ([1]; oral 13.5 mg/kg 2-on/5-off): 7 of 8
- average tumor regression ([1]; oral 13.5 mg/kg 2-on/5-off, p=6.5*10^-6): 28%
- tumors with regression observed ([1]; oral daily 7.5 mg/kg): 7 of 8
- average tumor regression ([1]; oral daily 7.5 mg/kg, p=2.5*10^-6): 77%
